Assay results reported in US11384075B2, “Quinolinone compounds” (Janssen Pharmaceutica NV, priority 2017, dated 2022).

What was measured:
[1] = molecular target: T1, NIH/3T3 cells overexpressing FGFR3 WT-TACC3 fusion protein (Homo sapiens, UniProt P22607); assay: NIH/3T3 FGFR3 WT-TACC3 cell proliferation assay; format: cell-based; settings: 72-hr incubation, CellTiter Glo, starting with 10 μM; read-out: NIH/3T3 FGFR3 WT-TACC3 CTG (IC50)
T1 construct: NIH/3T3 FGFR3 WT-TACC3 CTG (IC50); other: 72-hr incubation, CellTiter Glo, starting with 10 μM; fused on or other part: Q9Y6A5 (Transforming acidic coiled-coil-containing protein 3)
Method in brief: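 Cells seeded overnight, then exposed 72 h at 37 °C to compound in 9-point 4-fold dilutions from 10 μM (0.1% DMSO final). Viability read by CellTiter-Glo luminescence, normalized to survival %; IC50, pIC50 and Hill slope from concentration-response fit.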

[2] = molecular target: T2, human FGFR3 wild type enzyme (cytoplasmic domain) (Homo sapiens, UniProt P22607); assay: FGFR3 wild type mobility shift assay (enzymatic assay); format: biochemical; settings: 75 μM ATP, 50 minutes at 30° C., Caliper EZ reader II
T2 construct: human FGFR3 wild type enzyme (cytoplasmic domain, from Carna Biosciences); purchased Carna Biosciences
Method in brief: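 Cytoplasmic domain of human wild-type FGFR3 (0.04 ng/μL) with 75 μM ATP and 1 μM FL-peptide 30, pH 7.4 HEPES/MgCl2 buffer, 1% DMSO, 50 min at 30 °C, EDTA-stopped. Substrate-product conversion read by mobility shift. IC50, pIC50 and Hill slope from 10-point 4-fold dilutions starting at 10 μM.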

[3] = tested on: NIH/3T3 cells transfected with the same control vector; assay: NIH/3T3 mock cell proliferation assay (counter assay, general toxicity); format: cell-based; settings: Mus musculus, NIH3T3, 72 h, 72-hr incubation, CellTiter Glo, starting with 30 μM; counter assay for general toxicity; read-out: NIH/3T3 MOCK CTG (IC50)
Method in brief: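 Control-vector NIH/3T3 cells, 30,000/well in DMEM with 10% FBS, exposed 72 h at 37 °C to compound (9 points, 3-fold from 30 μM, 0.3% DMSO). CellTiter-Glo luminescence normalized to survival %; IC50, pIC50 and Hill slope from concentration-response fit.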

T1 sequence (P22607 whole entry, change not shown, the tested form may be a part): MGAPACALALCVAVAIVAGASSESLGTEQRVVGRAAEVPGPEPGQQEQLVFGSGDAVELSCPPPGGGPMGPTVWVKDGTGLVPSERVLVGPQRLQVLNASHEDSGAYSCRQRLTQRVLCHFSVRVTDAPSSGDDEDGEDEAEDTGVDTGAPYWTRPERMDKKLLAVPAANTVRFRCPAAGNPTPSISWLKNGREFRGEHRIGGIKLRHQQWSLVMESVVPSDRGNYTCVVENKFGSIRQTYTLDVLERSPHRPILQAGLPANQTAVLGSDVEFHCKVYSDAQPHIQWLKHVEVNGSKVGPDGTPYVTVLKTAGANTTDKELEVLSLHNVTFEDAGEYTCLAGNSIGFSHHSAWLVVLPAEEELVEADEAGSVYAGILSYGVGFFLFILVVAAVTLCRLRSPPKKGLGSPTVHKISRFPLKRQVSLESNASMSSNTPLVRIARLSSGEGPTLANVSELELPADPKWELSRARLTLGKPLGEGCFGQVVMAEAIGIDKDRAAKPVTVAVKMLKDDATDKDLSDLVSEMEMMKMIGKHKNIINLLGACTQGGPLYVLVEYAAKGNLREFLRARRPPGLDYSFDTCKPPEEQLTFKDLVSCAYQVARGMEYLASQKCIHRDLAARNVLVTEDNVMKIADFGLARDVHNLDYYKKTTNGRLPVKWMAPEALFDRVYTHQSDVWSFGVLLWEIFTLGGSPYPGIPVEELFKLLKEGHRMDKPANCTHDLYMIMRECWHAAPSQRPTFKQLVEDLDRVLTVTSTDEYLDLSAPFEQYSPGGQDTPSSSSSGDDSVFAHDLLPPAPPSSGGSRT
T2 sequence (P22607 397-806 limits assumed): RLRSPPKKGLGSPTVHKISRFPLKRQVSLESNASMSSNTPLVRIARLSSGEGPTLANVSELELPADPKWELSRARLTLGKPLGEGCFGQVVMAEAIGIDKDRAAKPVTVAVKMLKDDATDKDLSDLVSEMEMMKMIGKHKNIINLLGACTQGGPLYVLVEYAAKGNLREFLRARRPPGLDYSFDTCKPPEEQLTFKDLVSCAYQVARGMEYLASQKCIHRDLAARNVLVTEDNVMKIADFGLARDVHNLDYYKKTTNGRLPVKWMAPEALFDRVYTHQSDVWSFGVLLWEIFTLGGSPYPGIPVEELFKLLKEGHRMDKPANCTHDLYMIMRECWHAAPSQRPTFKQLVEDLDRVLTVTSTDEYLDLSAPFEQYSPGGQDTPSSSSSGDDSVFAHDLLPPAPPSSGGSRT

| SMILES | GI50 [1] [nM] | IC50 [2] [nM] | IC50 [3] [nM] |
| --- | --- | --- | --- |
| C[C@H](Nc1c(-c2nc3ccc(N4CCOCC4)cc3[nH]2)c(=O)[nH]c2ccccc12)c1ncccn1 [Compound 2, (S)-3-(6-morpholino-1H-benzo[d]imidazol-2-yl)-4-((1-(pyrimidin-2-yl)ethyl)amino)-quinolin-2(1H)-one] | 3.61 | 0.337 | 15300 |
| C[C@@H]1CN(c2ccc3nc(-c4c(N[C@@H](C)c5ccccn5)c5ccccc5[nH]c4=O)[nH]c3c2)C[C@H](C)O1 [Compound 4, 3-(6-((2S,6R)-2,6-dimethylmorpholino)-1H-benzo[d]imidazol-2-yl)-4-(((S)-1-(pyridin-2-yl)ethyl)amino)quinolin-2(1H)-one] | 24.8 | 2.59 | 7690 |
| C[C@@H]1CN(c2ccc3nc(-c4c(N[C@@H](C)c5ccccn5)c5ccccc5[nH]c4=O)[nH]c3c2)C[C@@H](C)O1 [Compound 21, 3-(6-((2R,6R)-2,6-dimethylmorpholino)-1H-benzo[d]imidazol-2-yl)-4-(((S)-1-(pyridin-2-yl)ethyl)amino)quinolin-2(1H)-one] | 25 | 5.04 | 13600 |
| C[C@H](Nc1c(-c2nc3ccc(N4CCOCC4)c(F)c3[nH]2)c(=O)[nH]c2ccccc12)c1ccccn1 [Compound 24, (S)-3-(7-fluoro-6-morpholino-1H-benzo[d]imidazol-2-yl)-4-((1-(pyridin-2-yl)ethyl)-amino)quinolin-2(1H)-one] | 20.2 | 2.18 | 13100 |
